From patent publication US10611756B2, “Method of treating pancreatitis using 1,4-benzoxazine derivatives” (GLAXOSMITHKLINE INTELLECTUAL PROPERTY DEVELOPMENT LIMITED, priority 2015, dated 2020)
“And” between values parts separate entries of the source, which are not always exact repeats. Equal values may be shown once.

What follows are molecules tested against human KMO (Homo sapiens, UniProt O15229) (assay: KMO MS Rapidfire assay (RapidFire High-Throughput Mass Spectrometry, Method 1 or Method 2)). Details: median pIC50, in at least one of the MS Rapidfire assays (Method 1 or 2); isolated human KMO-membranes, 10 μM Kynurenine, 200 μM NADPH; values exemplary only.
Chain of human KMO (O15229 whole entry): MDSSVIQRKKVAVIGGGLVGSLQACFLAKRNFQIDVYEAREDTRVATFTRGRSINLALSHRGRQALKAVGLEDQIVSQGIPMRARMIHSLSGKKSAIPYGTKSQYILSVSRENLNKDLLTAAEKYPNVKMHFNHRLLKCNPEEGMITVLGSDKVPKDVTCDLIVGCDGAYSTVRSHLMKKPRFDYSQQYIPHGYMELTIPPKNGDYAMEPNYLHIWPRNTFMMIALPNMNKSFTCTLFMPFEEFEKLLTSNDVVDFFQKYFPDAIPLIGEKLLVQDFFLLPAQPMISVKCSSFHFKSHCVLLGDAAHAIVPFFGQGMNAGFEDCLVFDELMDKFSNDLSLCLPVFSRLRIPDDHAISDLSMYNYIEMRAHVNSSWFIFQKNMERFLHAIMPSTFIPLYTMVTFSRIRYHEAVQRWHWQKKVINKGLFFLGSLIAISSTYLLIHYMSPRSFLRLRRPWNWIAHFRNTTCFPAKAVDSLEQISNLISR
Method: KMO inhibition can be determined by MS Rapidfire assay performed on the human cloned enzyme as described herein.
100 nL DMSO was dispensed into columns 6 and 18 for high and low controls, respectively, with prior inactivation of the enzyme in column 18 by pre-dispense of 30 μL of 0.5% (v/v) TFA.
Conditions for the assay of human KMO using isolated KMO-membranes were 50 mM HEPES, pH 7.5, 2 mM DTT, 1 mM EDTA, 100 μM CHAPS, 200 μM NADPH, 10 μM Kynurenine and 8 μg/ml KMO-membranes in a total reaction volume of 10 μL.
Assays were performed by initially dispensing 5 μL of a 2× Enzyme solution (16 μg/ml KMO-membranes in 50 mM HEPES, pH 7.5, 2 mM DTT, 2 mM EDTA, 200 μM CHAPS) into plates containing 100 nL compounds and incubating for 10 min at ambient temperature. […] All additions were made using a Multidrop Combi dispenser (Thermo Fisher Scientific).
Quenched assay plates were transferred to a high-throughput RapidFire200 integrated autosampler/solid-phase extraction (SPE) system (Agilent Technologies, Wakefield, Mass.). Samples were aspirated from each well for 500 ms and 10 μL was loaded directly onto a RapidFire micro-scale SPE C18 (type C) cartridge, which was washed for 3 s with HPLC-grade water containing 0.1% (v/v) formic acid to remove non-organic components. Analytes were then eluted into the mass spectrometer, in a 3 s elution cycle, using 80% (v/v) acetonitrile/water containing 0.1% (v/v) formic acid, and the cartridge was then equilibrated by washing with water containing 0.1% (v/v) formic acid for 500 ms. This gave a total cycle time of 7 s, enabling analysis of a 384-well plate in approximately 45 min.
Both Kyn and 3-HK were detected using a Sciex AP14000 triple quadrupole mass spectrometer (Applied Biosystems, Concord, Ontario, Canada), equipped with an electrospray interface and operated in positive ion mode. […] The mass spectrometer used an ESI voltage of 5500 V and a source temperature of 600° C., with a dwell time of 50 ms for each transition.
Using the integrated peak area for 3-HK data was analysed within ActivityBase (ID Business Solutions Ltd, Surrey, UK). Dose response curves were fitted to equation (1):
100 nL DMSO was dispensed into columns 6 and 18 for high and low controls, respectively, with prior inactivation of the enzyme in column 18 by pre-dispense of 50 μL of 0.5% (v/v) TFA.
Cc1ncc(C(C)Oc2cc3c(cc2Cl)N(CCC(=O)O)C(=O)CO3)o1 (racemic) [Example 3, 2-amino-2-(hydroxymethyl)propane-1,3-diol; 3-{6-chloro-7-[1-(2-methyl-1,3-oxazol-5-yl)ethoxy]-3-oxo-3,4-dihydro-2H-1,4-benzoxazin-4-yl}propanoic acid] was tested, and the IC50 was ≤ 31.6 nM.
CC(Oc1cc2c(cc1Cl)N(CCC(=O)O)C(=O)CO2)c1ncc[nH]1 (racemic) [Example 6, 2-amino-2-(hydroxymethyl)propane-1,3-diol; 3-{6-chloro-7-[1-(1H-imidazol-2-yl)ethoxy]-3-oxo-3,4-dihydro-2H-1,4-benzoxazin-4-yl}propanoic acid] was tested, and the IC50 was ≤ 31.6 nM.
CC(Oc1cc2c(cc1Cl)N(CCC(=O)O)C(=O)CO2)c1ncco1 (single isomer, unassigned) [Example 4, 2-amino-2-(hydroxymethyl)propane-1,3-diol; 3-{6-chloro-7-[1-(1,3-oxazol-2-yl)ethoxy]-3-oxo-3,4-dihydro-2H-1,4-benzoxazin-4-yl}propanoic acid] was tested, and the IC50 was ≤ 31.6 nM.
CC(Oc1cc2c(cc1Cl)N(CCC(=O)O)C(=O)CO2)c1ncccn1 (single isomer, unassigned) [Example 7, 2-amino-2-(hydroxymethyl)propane-1,3-diol; 3-{6-chloro-3-oxo-7-[1-(pyrimidin-2-yl)ethoxy]-3,4-dihydro-2H-1,4-benzoxazin-4-yl}propanoic acid] was tested, and the IC50 was ≤ 31.6 nM.
With CCC(Oc1cc2c(cc1Cl)N(CCC(=O)O)C(=O)CO2)c1ncccn1 (single isomer, unassigned) [Example 21, 3-{6-chloro-3-oxo-7-[1-(pyrimidin-2-yl)propoxy]-3,4-dihydro-2H-1,4-benzoxazin-4-yl}propanoic acid] the IC50 was ≤ 31.6 nM.
For CCC(Oc1cc2c(cc1Cl)N(CCC(=O)O)C(=O)CO2)c1ncc(C)cn1 (single isomer, unassigned) [Example 23, 3-{6-chloro-7-[1-(5-methylpyrimidin-2-yl)propoxy]-3-oxo-3,4-dihydro-2H-1,4-benzoxazin-4-yl}propanoic acid], the IC50 was ≤ 31.6 nM.
CCC(Oc1cc2c(cc1Cl)N(CCC(=O)O)C(=O)CO2)c1ncc(Cl)cn1 (single isomer, unassigned) [Example 26, 3-{6-chloro-7-[1-(5-chloropyrimidin-2-yl)propoxy]-3-oxo-3,4-dihydro-2H-1,4-benzoxazin-4-yl}propanoic acid] was tested, and the IC50 was ≤ 31.6 nM.
With CCC(Oc1cc2c(cc1Cl)N(CCC(=O)O)C(=O)CO2)c1cccnn1 (single isomer, unassigned) [Example 28, 3-{6-chloro-3-oxo-7-[1-(pyridazin-3-yl)propoxy]-3,4-dihydro-2H-1,4-benzoxazin-4-yl}propanoic acid] the IC50 was ≤ 31.6 nM.
In the case of CCC(Oc1cc2c(cc1Cl)N(CCC(=O)O)C(=O)CO2)c1ccc(C)nn1 (single isomer, unassigned) [Example 29, 3-{6-chloro-7-[1-(6-methylpyridazin-3-yl)propoxy]-3-oxo-3,4-dihydro-2H-1,4-benzoxazin-4-yl}propanoic acid], the IC50 is reported as ≤ 31.6 nM.
CC[C@@H](Oc1cc2c(cc1Cl)N(CCC(=O)O)C(=O)CO2)c1ccc(Cl)cn1 [Example 1, (R)-3-(6-Chloro-7-(1-(5-chloropyridin-2-yl)propoxy)-3-oxo-2H-benzo[b][1,4]oxazin-4(3H)-yl)propanoic Acid] was tested, and the IC50 was ≤ 31.6 nM and 1 nM.
For O=C(O)CCN1C(=O)COc2cc(OCc3ccccn3)c(Cl)cc21 [Example 9, 3-[6-chloro-3-oxo-7-(pyridin-2-ylmethoxy)-3,4-dihydro-2H-1,4-benzoxazin-4-yl]propanoic acid], the IC50 was ≤ 31.6 nM.
